In PubChem BioAssay AID246 (DTP/NCI, 2004) one finds T/C data, which are given here for 14 molecules.

Values joined by “and” are separate entries in the source; they are usually repeats but may differ in a detail not shown here. Equal entries are not always repeated. Inconclusive results and toxic doses are left out.

The subject of this assay is BDF1 mice, P1081 chloroleukemia ip, survival T/C. The experiment in a line: NCI In Vivo Anticancer Drug Screen. Data for tumor model P1081 Chloroleukemia (intraperitoneal) in B6D2F1 (BDF1) mice. The settings on record: endpoint: mean survival time, higher = longer survival. The procedure:
The antitumor activity of compounds was measured in mice bearing transplantable tumors. Survival or tumor size were measured and the results are expressed as the measurement made in the treated group (T) divided by the measurement made in the vehicle treated control group (C). The tumor model used in this assay is P1081 Chloroleukemia (intraperitoneal) in B6D2F1 (BDF1) mice

[1] abbreviates: dose: 10.0 mg/kg/injection, schedule: Q01DX010 (ip), vehicle: saline.
Setting [2] is: dose: 20.0 mg/kg/injection, schedule: Q01DX010 (ip), vehicle: saline.
Setting [3] is: dose: 40.0 mg/kg/injection, schedule: Q01DX010 (ip), vehicle: saline.
The mark [4] stands for this setting: dose: 6.25 mg/kg/injection, schedule: Q01DX Z (ip), vehicle: carboxymethylcellulose (CMC).
Setting [5] is: dose: 12.5 mg/kg/injection, schedule: Q01DX Z (ip), vehicle: carboxymethylcellulose (CMC).
Where [6] appears, read: dose: 100.0 mg/kg/injection, schedule: Q01DX Z (ip), vehicle: carboxymethylcellulose (CMC).
Setting [7] is: dose: 62.5 mg/kg/injection, schedule: Q01DX010 (ip), vehicle: saline.
The mark [8] stands for this setting: dose: 125.0 mg/kg/injection, schedule: Q01DX010 (ip), vehicle: saline.
[9] abbreviates: dose: 25.0 mg/kg/injection, schedule: Q01DX Z (ip), vehicle: carboxymethylcellulose (CMC).
[10] abbreviates: dose: 50.0 mg/kg/injection, schedule: Q01DX Z (ip), vehicle: carboxymethylcellulose (CMC).
Where [11] appears, read: dose: 16.0 mg/kg/injection, schedule: Q01DX Z (ip), vehicle: carboxymethylcellulose (CMC).
Where [12] appears, read: dose: 62.5 mg/kg/injection, schedule: Q01DX Z (ip), vehicle: carboxymethylcellulose (CMC).

Regarding `CCC(=O)O[C@H]1CC[C@H]2[C@@H]3CCC4=CC(=O)CC[C@]4(C)[C@H]3CC[C@]12C`, the T/C by setting is: (dose: 31.25 mg/kg/injection, schedule: Q01DX Z (sc), vehicle: steriod suspending solution) 92 % of control; (dose: 62.5 mg/kg/injection, schedule: Q01DX Z (sc), vehicle: steriod suspending solution) 111 % of control; (dose: 125.0 mg/kg/injection, schedule: Q01DX Z (sc), vehicle: steriod suspending solution) 107 % of control and 116 % of control; (dose: 250.0 mg/kg/injection, schedule: Q01DX Z (sc), vehicle: steriod suspending solution) 107 % of control; (dose: 500.0 mg/kg/injection, schedule: Q01DX Z (sc), vehicle: steriod suspending solution) 95 % of control; (dose: 2000.0 mg/kg/injection, schedule: Q01DX Z (sc), vehicle: steriod suspending solution) 122 % of control.

As for `O=C(Nc1ccc(C2=NCCN2)cc1)c1ccc(C(=O)Nc2ccc(C3=NCCN3)cc2)c([N+](=O)[O-])c1`, the T/C by setting is: (dose: 6.0 mg/kg/injection, schedule: Q01DX010 (ip), vehicle: saline) 260 % of control and 288 % of control; (dose: 8.0 mg/kg/injection, schedule: Q01DX010 (ip), vehicle: saline) 285 % of control and 311 % of control; (dose: 12.0 mg/kg/injection, schedule: Q01DX010 (ip), vehicle: saline) 166 % of control and 250 % of control; (dose: 18.0 mg/kg/injection, schedule: Q01DX010 (ip), vehicle: saline) 120 % of control and 122 % of control.

In the case of `CC1CCOS(=O)O1` (stereo unspecified), the T/C is 101 % of control (dose: 2.5 mg/kg/injection, schedule: Q01DX Z (ip), vehicle: carboxymethylcellulose (CMC)); 115 % of control (dose: 5.0 mg/kg/injection, schedule: Q01DX Z (ip), vehicle: carboxymethylcellulose (CMC)); 115 % of control under setting [1]; 86 % of control (dose: 10.0 mg/kg/injection, schedule: Q01DX Z (ip), vehicle: carboxymethylcellulose (CMC)); 110 % of control under setting [2]; 95 % of control under setting [3].

For the molecule `NC(=O)c1cn(C2OC(CO)C(O)C2O)c2ncnc(N)c12` (stereo unspecified), the T/C (dose: 0.25 mg/kg/injection, schedule: Q01DX Z (ip), vehicle: carboxymethylcellulose (CMC)) was 102 % of control.

As for `CC(=O)[C@H]1CC[C@H]2[C@@H]3C[C@H](C)C4=CC(=O)CC[C@]4(C)[C@H]3C(=O)C[C@]12C`, the T/C (dose: 6.3 mg/kg/injection, schedule: Q01DX Z (sc), vehicle: steriod suspending solution) was 121 % of control; the T/C (dose: 12.5 mg/kg/injection, schedule: Q01DX Z (sc), vehicle: steriod suspending solution) is 110 % of control; the T/C (dose: 25.0 mg/kg/injection, schedule: Q01DX Z (sc), vehicle: steriod suspending solution) is 110 % of control; the T/C (dose: 50.0 mg/kg/injection, schedule: Q01DX Z (sc), vehicle: steriod suspending solution) is 101 % of control; the T/C (dose: 100.0 mg/kg/injection, schedule: Q01DX Z (sc), vehicle: steriod suspending solution) was 98 % of control; the T/C (dose: 200.0 mg/kg/injection, schedule: Q01DX Z (sc), vehicle: steriod suspending solution) is 105 % of control and 94 % of control.

For the molecule `C[N+](C)(C)c1ncnc2nc[nH]c12`, the T/C is 94 % of control (dose: 3.1 mg/kg/injection, schedule: Q01DX Z (ip), vehicle: carboxymethylcellulose (CMC)); 97 % of control under setting [4]; 100 % of control under setting [5]; 195 % of control under setting [6].

Consider `Nc1c(Br)cc2c(c1Br)Cc1cc([N+](=O)[O-])ccc1-2`, for which the T/C runs as follows: (dose: 15.6 mg/kg/injection, schedule: Q01DX010 (ip), vehicle: saline) 100 % of control; (dose: 31.3 mg/kg/injection, schedule: Q01DX010 (ip), vehicle: saline) 105 % of control; under setting [7], 110 % of control and 100 % of control; under setting [8], 100 % of control; (dose: 250.0 mg/kg/injection, schedule: Q01DX010 (ip), vehicle: saline) 100 % of control; (dose: 500.0 mg/kg/injection, schedule: Q01DX010 (ip), vehicle: saline) 95 % of control.

In the case of `c1ccc(CCSc2ncnc3nc[nH]c23)cc1`, the T/C under setting [7] was 120 % of control and the T/C under setting [8] is 120 % of control.

For `CS(=O)(=O)OCCCl`, the T/C under setting [5] was 98 % of control; the T/C (dose: 18.8 mg/kg/injection, schedule: Q01DX010 (ip), vehicle: saline) was 105 % of control and 95 % of control; the T/C under setting [9] was 110 % of control; the T/C (dose: 37.5 mg/kg/injection, schedule: Q01DX010 (ip), vehicle: saline) is 110 % of control and 100 % of control; the T/C under setting [10] is 98 % of control; the T/C (dose: 75.0 mg/kg/injection, schedule: Q01DX010 (ip), vehicle: saline) is 105 % of control and 90 % of control. In addition, the T/C under setting [6] was 94 % of control and the T/C (dose: 2000.0 mg/kg/injection, schedule: Q01DX Z (ip), vehicle: carboxymethylcellulose (CMC)) was 103 % of control.

Consider `CCOC(=O)NP(=O)(N1CC1(C)C)N1CC1(C)C` (stereo unspecified), for which the T/C by setting is: (dose: 8.0 mg/kg/injection, schedule: Q01DX Z (ip), vehicle: carboxymethylcellulose (CMC)) 109 % of control; under setting [11], 106 % of control and 99 % of control; under setting [12], 87 % of control and 104 % of control; (dose: 63.0 mg/kg/injection, schedule: Q01DX Z (ip), vehicle: carboxymethylcellulose (CMC)) 169 % of control.

As for `CC(=O)O[C@]1(C(C)=O)CC[C@H]2[C@@H]3C[C@H](C)C4=CC(=O)C=C[C@]4(C)[C@@]3(F)[C@@H](O)C[C@@]21C`, the T/C (dose: 2.5 mg/kg/injection, schedule: Q01DX Z (sc), vehicle: steriod suspending solution) is 100 % of control; the T/C (dose: 5.0 mg/kg/injection, schedule: Q01DX Z (sc), vehicle: steriod suspending solution) was 108 % of control; the T/C (dose: 10.0 mg/kg/injection, schedule: Q01DX Z (sc), vehicle: steriod suspending solution) is 107 % of control; the T/C (dose: 12.5 mg/kg/injection, schedule: Q01DX010 (sc), vehicle: steriod suspending solution) is 105 % of control and 100 % of control; the T/C (dose: 20.0 mg/kg/injection, schedule: Q01DX Z (sc), vehicle: steriod suspending solution) is 108 % of control; the T/C (dose: 25.0 mg/kg/injection, schedule: Q01DX010 (sc), vehicle: steriod suspending solution) is 100 % of control. Moreover, the T/C (dose: 40.0 mg/kg/injection, schedule: Q01DX Z (sc), vehicle: steriod suspending solution) was 116 % of control; the T/C (dose: 50.0 mg/kg/injection, schedule: Q01DX010 (sc), vehicle: steriod suspending solution) is 90 % of control and 95 % of control; the T/C (dose: 100.0 mg/kg/injection, schedule: Q01DX010 (sc), vehicle: steriod suspending solution) was 90 % of control and 100 % of control; the T/C (dose: 160.0 mg/kg/injection, schedule: Q01DX Z (sc), vehicle: steriod suspending solution) is 105 % of control; the T/C (dose: 320.0 mg/kg/injection, schedule: Q01DX Z (sc), vehicle: steriod suspending solution) was 93 % of control.

Turning to `O=c1[nH]c(=O)n(C2CC(O)C(CO)O2)cc1Br` (stereo unspecified), the T/C by setting is: under setting [11], 86 % of control; (dose: 31.0 mg/kg/injection, schedule: Q01DX Z (ip), vehicle: carboxymethylcellulose (CMC)) 107 % of control and 88 % of control; under setting [12], 106 % of control and 99 % of control; (dose: 125.0 mg/kg/injection, schedule: Q01DX Z (ip), vehicle: carboxymethylcellulose (CMC)) 88 % of control; (dose: 250.0 mg/kg/injection, schedule: Q01DX Z (ip), vehicle: carboxymethylcellulose (CMC)) 101 % of control.

`CN(C)c1ccc(Nc2c3ccccc3nc3ccccc23)cc1`: the T/C runs as follows: under setting [4], 101 % of control; under setting [5], 88 % of control; under setting [9], 90 % of control; (dose: 36.0 mg/kg/injection, schedule: Q01DX010 (ip), vehicle: saline) 104 % of control; under setting [10], 95 % of control; under setting [6], 103 % of control.

For `Cc1cc(N(CCCl)CCCl)ccc1N=Nc1ccccc1C(=O)O`, the T/C (dose: 5.0 mg/kg/injection, schedule: Q01DX010 (ip), vehicle: saline) was 105 % of control; the T/C (dose: 7.5 mg/kg/injection, schedule: Q01DX Z (ip), vehicle: carboxymethylcellulose (CMC)) was 101 % of control; the T/C under setting [1] is 110 % of control and 95 % of control; the T/C (dose: 15.0 mg/kg/injection, schedule: Q01DX Z (ip), vehicle: carboxymethylcellulose (CMC)) is 104 % of control; the T/C under setting [2] is 110 % of control and 90 % of control; the T/C (dose: 30.0 mg/kg/injection, schedule: Q01DX Z (ip), vehicle: carboxymethylcellulose (CMC)) is 104 % of control. Besides, the T/C under setting [3] was 110 % of control.
